Test [1] has as its system male ZDF fa/fa rats. Put plainly: % HbA1C 7 day change in ZDF rats. In kind it is in vivo, rat. The settings on record: oral gavage BID for 7 days, Compound (I) 5 mg/kg, Compound (II) 100 mg/kg, combination of both doses, n=6, control 1.63 ± 1.12. As to the method: Age and weight matched male ZDF fa/fa rats (Genetic Models, Inc., Indianapolis, Ind.) were housed individually at 72° F. and 50% relative humidity with a 12 h light/dark cycle and fed PMI 5008 Formulab Diet (PMI Nutrition International, Saint Louis, Mo.).
(§1) Rats were anesthetized with isofluorane for cardiac blood collection 30 minutes after administration of the glucose solution. Serum chemistry measurements were obtained using an automated chemistry analyzer (ILab600, Instrument Laboratory, Lexington, Mass.).
Results from each group (n=6) were averaged and compared to vehicle treated rats to determine significance and are shown in Table I.

The subject of test [2] is male ZDF fa/fa rats. Put plainly: Glucose tolerance test, plasma glucose 30 min after intraperitoneal glucose, in ZDF rats. In kind it is in vivo, rat. As to conditions: oral gavage BID for 7 days, i.p. glucose 30 min after last dose, blood 30 min after glucose, Compound (I) 5 mg/kg, Compound (II) 100 mg/kg, combination of both doses, n=6, control 695 ± 24. As to the method:
For glucose tolerance measurements, rats were treated with test compound for 7 days and given an intraperitoneal injection of a glucose solution in saline 30 minutes after the last dose of test compound.
as §1

Test [3] addresses T1, DPP-IV (Rattus norvegicus, UniProt P14740).
T1 construct: from tissue; host or cells: plasma of treated male ZDF fa/fa rats
Put plainly: Plasma DPP-IV activity in treated ZDF rats (Gly-Pro-AMC fluorogenic substrate). In kind it is in vivo. As to conditions: male ZDF fa/fa rats, oral gavage BID for 7 days; Compound (I) 5 mg/kg, Compound (II) 100 mg/kg, combination of both doses; n=6; control 5544 ± 485. As to the method:
DPP-IV activity was measured using the fluorogenic substrate Gly-Pro-AMC ([…]) according to the manufacturer's specification (Enzyme System Products, Livermore Calif.). The substrate was mixed with 50 mM Tris, pH 7.8, in plasma (20% final v/v) and the samples were incubated for 5-20 min at 30 °C. DPP-IV activity was determined by measuring fluorescence using a cytofluor spectrofluoremeter with the filters set at 360 nm excitation and 460 nm emission.

T1 sequence (P14740 37-767 limits assumed): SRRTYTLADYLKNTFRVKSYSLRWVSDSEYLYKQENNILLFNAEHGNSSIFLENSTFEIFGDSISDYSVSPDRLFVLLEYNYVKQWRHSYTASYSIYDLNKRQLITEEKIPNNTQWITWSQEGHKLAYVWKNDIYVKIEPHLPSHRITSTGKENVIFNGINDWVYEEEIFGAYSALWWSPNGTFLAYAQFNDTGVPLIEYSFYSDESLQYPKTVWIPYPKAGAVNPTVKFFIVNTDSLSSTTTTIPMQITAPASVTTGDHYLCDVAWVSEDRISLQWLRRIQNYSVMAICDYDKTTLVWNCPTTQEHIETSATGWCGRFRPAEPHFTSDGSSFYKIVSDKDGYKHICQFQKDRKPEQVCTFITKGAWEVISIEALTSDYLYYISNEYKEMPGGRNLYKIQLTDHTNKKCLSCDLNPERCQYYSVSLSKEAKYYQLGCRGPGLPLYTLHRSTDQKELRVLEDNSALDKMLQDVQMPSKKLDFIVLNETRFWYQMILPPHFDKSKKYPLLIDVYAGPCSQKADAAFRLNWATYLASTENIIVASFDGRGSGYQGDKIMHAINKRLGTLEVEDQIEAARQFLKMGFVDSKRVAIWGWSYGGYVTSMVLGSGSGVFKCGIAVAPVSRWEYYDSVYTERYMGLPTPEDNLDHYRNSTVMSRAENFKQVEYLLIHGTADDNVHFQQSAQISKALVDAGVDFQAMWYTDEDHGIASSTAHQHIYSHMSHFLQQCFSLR

In the case of `CC[C@H](C)[C@H](N)C(=O)N1CCSC1` [Compound (II), isoleucine thiazolidide], in test [1], the “% HbA1C (7 day change)” value is 1.81 ± 1.24%. In test [2], the “Plasma Glucose (30 min GTT)” value turned out to be 684 ± 60.
Consider `CN(CCOc1ccc(CC2SC(=O)NC2=O)cc1)c1ccccn1` (centres unmarked) [Compound (I), 5-[4-[2-(N-methyl-N-(2-pyridyl)amino)ethoxy]benzyl]thiazolidine-2,4-dione], for which the “Plasma DPP-IV activity” value in test [3] turned out to be 4104 ± 399. Further, the “% HbA1C (7 day change)” value in test [1] worked out at 0.79 ± 0.54 %. Besides, the “Plasma Glucose (30 min GTT)” value in test [2] is 665 ± 40.

(Values after patent publication US20070238756A1, “COMBINATIONS OF DIPEPTIDYL PEPTIDASE IV INHIBITORS AND OTHER ANTIDIABETIC AGENTS FOR THE TREATMENT OF DIABETES MELLITUS” (priority 2000, published 2007).)
